In patent US20120252852A1 (SANOFI, priority 2011, published 2012):

Assays:
[1] = Level of impurities in dependency on pH and repeated autoclaving (1 mg/mL Otamixaban, citrate composition of Example 5, HPLC); format: physicochemical
Procedure: The appropriate pH value was adjusted by using sodium hydroxide solution (1 M sodium hydroxide) or diluted hydrochloric acid (1 M hydrochloric acid). […] [table] […] The mobile phase was filtered through a 1.5 μm filter. Typically, add 500 mL of mobile phase A to 500 mL of acetonitrile. Mix and degas. [table] [table]

[2] = Level of impurities in dependency on Otamixaban concentration and autoclaving (HPLC); format: physicochemical
Procedure: Liquid pharmaceutical compositions were prepared containing 1, 5 or 50 mg/mL
The appropriate pH value was adjusted by using sodium hydroxide solution (1 M sodium hydroxide) or diluted hydrochloric acid (1 M hydrochloric acid).

[3] = repeated autoclaving, pH 2.5 to 4.7

SMILES: COC(=O)[C@H](Cc1cccc(C(=N)N)c1)[C@@H](C)NC(=O)c1ccc(-c2cc[n+]([O-])cc2)cc1 (mixture of isomers) [Otamixaban, Methyl (2R,3R)-2-{3-[amino(imino)methyl]benzyl}-3-{[4-(1-oxidopyridin-4-yl)benzoyl]amino}butanoate]
- Increase of Formula III (carbamoyl-benzyl butyric acid methyl ester) ([1]; pH 2.5, 0 autoclaving): 0.39%
- Increase of Formula III (carbamoyl-benzyl butyric acid methyl ester) ([1]; pH 2.5, 1 autoclaving): 0.71%
- Increase of Formula III (carbamoyl-benzyl butyric acid methyl ester) ([1]; pH 2.5, 2 autoclaving): 1.02%
- Increase of Formula III (carbamoyl-benzyl butyric acid methyl ester) ([1]; pH 2.5, 3 autoclaving): 1.32%
- Increase of Formula III (carbamoyl-benzyl butyric acid methyl ester) ([1]; pH 3.0, 0 autoclaving): 0.39%
- Increase of Formula III (carbamoyl-benzyl butyric acid methyl ester) ([1]; pH 3.0, 1 autoclaving): 0.74%
- Increase of Formula III (carbamoyl-benzyl butyric acid methyl ester) ([1]; pH 3.0, 2 autoclaving): 1.09%
- Increase of Formula III (carbamoyl-benzyl butyric acid methyl ester) ([1]; pH 3.0, 3 autoclaving): 1.43%
- Increase of Formula III (carbamoyl-benzyl butyric acid methyl ester) ([1]; pH 3.2, 0 autoclaving): 0.39%
- Increase of Formula III (carbamoyl-benzyl butyric acid methyl ester) ([1]; pH 3.2, 1 autoclaving): 0.76%
- Increase of Formula III (carbamoyl-benzyl butyric acid methyl ester) ([1]; pH 3.2, 2 autoclaving): 1.13%
- Increase of Formula III (carbamoyl-benzyl butyric acid methyl ester) ([1]; pH 3.2, 3 autoclaving): 1.50%
- Increase of Formula III (carbamoyl-benzyl butyric acid methyl ester) ([1]; pH 3.5, 0 autoclaving): 0.39%
- Increase of Formula III (carbamoyl-benzyl butyric acid methyl ester) ([1]; pH 3.5, 1 autoclaving): 0.81%
- Increase of Formula III (carbamoyl-benzyl butyric acid methyl ester) ([1]; pH 3.5, 2 autoclaving): 1.23%
- Increase of Formula III (carbamoyl-benzyl butyric acid methyl ester) ([1]; pH 3.5, 3 autoclaving): 1.65%
- Increase of Formula III (carbamoyl-benzyl butyric acid methyl ester) ([1]; pH 3.7 (first row), 0 autoclaving): 0.39%
- Increase of Formula III (carbamoyl-benzyl butyric acid methyl ester) ([1]; pH 3.7 (first row), 1 autoclaving): 0.87%
- Increase of Formula III (carbamoyl-benzyl butyric acid methyl ester) ([1]; pH 3.7 (first row), 2 autoclaving): 1.33%
- Increase of Formula III (carbamoyl-benzyl butyric acid methyl ester) ([1]; pH 3.7 (first row), 3 autoclaving): 1.80%
- Increase of Formula III (carbamoyl-benzyl butyric acid methyl ester) ([1]; pH 3.7 (second row), 0 autoclaving): 0.39%
- Increase of Formula III (carbamoyl-benzyl butyric acid methyl ester) ([1]; pH 3.7 (second row), 1 autoclaving): 0.84%
- Increase of Formula III (carbamoyl-benzyl butyric acid methyl ester) ([1]; pH 3.7 (second row), 2 autoclaving): 1.28%
- Increase of Formula III (carbamoyl-benzyl butyric acid methyl ester) ([1]; pH 3.7 (second row), 3 autoclaving): 1.71%
- Increase of Formula III (carbamoyl-benzyl butyric acid methyl ester) ([1]; pH 4.0, 0 autoclaving): 0.39%
- Increase of Formula III (carbamoyl-benzyl butyric acid methyl ester) ([1]; pH 4.0, 1 autoclaving): 0.95%
- Increase of Formula III (carbamoyl-benzyl butyric acid methyl ester) ([1]; pH 4.0, 2 autoclaving): 1.48%
- Increase of Formula III (carbamoyl-benzyl butyric acid methyl ester) ([1]; pH 4.0, 3 autoclaving): 2.02%
- Increase of Formula III (carbamoyl-benzyl butyric acid methyl ester) ([1]; pH 4.2, 0 autoclaving): 0.39%
- Increase of Formula III (carbamoyl-benzyl butyric acid methyl ester) ([1]; pH 4.2, 1 autoclaving): 1.08%
- Increase of Formula III (carbamoyl-benzyl butyric acid methyl ester) ([1]; pH 4.2, 2 autoclaving): 1.75%
- Increase of Formula III (carbamoyl-benzyl butyric acid methyl ester) ([1]; pH 4.2, 3 autoclaving): 2.42%
- Increase of Formula III (carbamoyl-benzyl butyric acid methyl ester) ([1]; pH 4.5, 0 autoclaving): 0.39%
- Increase of Formula III (carbamoyl-benzyl butyric acid methyl ester) ([1]; pH 4.5, 1 autoclaving): 1.40%
- Increase of Formula III (carbamoyl-benzyl butyric acid methyl ester) ([1]; pH 4.5, 2 autoclaving): 2.37%
- Increase of Formula III (carbamoyl-benzyl butyric acid methyl ester) ([1]; pH 4.5, 3 autoclaving): 3.36%
- Increase of Formula III (carbamoyl-benzyl butyric acid methyl ester) ([1]; pH 4.7, 0 autoclaving): 0.39%
- Increase of Formula III (carbamoyl-benzyl butyric acid methyl ester) ([1]; pH 4.7, 1 autoclaving): 1.84%
- Increase of Formula III (carbamoyl-benzyl butyric acid methyl ester) ([1]; pH 4.7, 2 autoclaving): 3.20%
- Increase of Formula III (carbamoyl-benzyl butyric acid methyl ester) ([1]; pH 4.7, 3 autoclaving): 4.58%
- Levels of Formula II (carbamimidoyl acid) versus pH [1, 3]: minimum at pH 4
- Levels of Formula III (carbamoyl methyl ester) versus pH [1, 3]: lowest at the lowest pH
- Increase of Formula III (carbamoyl-benzyl butyric acid methyl ester) ([2]; pH 4.2-4.3, 5 mg/mL, vial 5 mL, 20 min 123° C., 0 autoclaving): 0.2%
- Increase of Formula III (carbamoyl-benzyl butyric acid methyl ester) ([2]; pH 4.2-4.3, 5 mg/mL, vial 5 mL, 20 min 123° C., 1 autoclaving): 0.9%
- Increase of Formula III (carbamoyl-benzyl butyric acid methyl ester) ([2]; pH 4.2-4.3, 5 mg/mL, vial 5 mL, 20 min 123° C., 2 autoclaving): 1.7%
- Increase of Formula III (carbamoyl-benzyl butyric acid methyl ester) ([2]; pH 4.2-4.3, 5 mg/mL, vial 5 mL, 20 min 123° C., 3 autoclaving): 2.5%
- Increase of Formula III (carbamoyl-benzyl butyric acid methyl ester) ([2]; pH 4.2, 1 mg/mL, vial 50 mL, 20 min […] C., 0 autoclaving): 0.4%
- Increase of Formula III (carbamoyl-benzyl butyric acid methyl ester) ([2]; pH 4.2, 1 mg/mL, vial 50 mL, 20 min […] C., 1 autoclaving): 1.3%
- Increase of Formula III (carbamoyl-benzyl butyric acid methyl ester) ([2]; pH 4.2, 1 mg/mL, vial 50 mL, 20 min […] C., 2 autoclaving): 2.3%
- Increase of Formula III (carbamoyl-benzyl butyric acid methyl ester) ([2]; pH 4.2, 1 mg/mL, vial 50 mL, 25 min 125° C., 0 autoclaving): 0.4%
- Increase of Formula III (carbamoyl-benzyl butyric acid methyl ester) ([2]; pH 4.2, 1 mg/mL, vial 50 mL, 25 min 125° C., 1 autoclaving): 1.3%
- Increase of Formula III (carbamoyl-benzyl butyric acid methyl ester) ([2]; pH 4.2, 5 mg/mL, vial 5 mL, 20 min 123° C., 0 autoclaving): 0.3%
- Increase of Formula III (carbamoyl-benzyl butyric acid methyl ester) ([2]; pH 4.2, 5 mg/mL, vial 5 mL, 20 min 123° C., 1 autoclaving): 1.0%
- Increase of Formula III (carbamoyl-benzyl butyric acid methyl ester) ([2]; pH 4.2, 5 mg/mL, vial 5 mL, 20 min 123° C., 2 autoclaving): 1.8%
- Increase of Formula III (carbamoyl-benzyl butyric acid methyl ester) ([2]; pH 4.2, 5 mg/mL, vial 5 mL, 20 min 123° C., 3 autoclaving): 2.6%
- Increase of Formula III (carbamoyl-benzyl butyric acid methyl ester) ([2]; pH 4.2, 5 mg/mL, vial 50 mL, 25 min 125° C., 0 autoclaving): 0.4%
- Increase of Formula III (carbamoyl-benzyl butyric acid methyl ester) ([2]; pH 4.2, 5 mg/mL, vial 50 mL, 25 min 125° C., 1 autoclaving): 1.4%
- Increase of Formula III (carbamoyl-benzyl butyric acid methyl ester) ([2]; pH 4.2, 50 mg/mL, vial 5 mL, 20 min 123° C., 0 autoclaving): 0.3%
- Increase of Formula III (carbamoyl-benzyl butyric acid methyl ester) ([2]; pH 4.2, 50 mg/mL, vial 5 mL, 20 min 123° C., 1 autoclaving): 1.1%
- Increase of Formula III (carbamoyl-benzyl butyric acid methyl ester) ([2]; pH 4.2, 50 mg/mL, vial 5 mL, 20 min 123° C., 2 autoclaving): 1.9%
